Results from article PMC9549030, “Structural basis for specific inhibition of the deubiquitinase UCHL1” (Nature Communications, 2022).
Where “and” joins values, the source holds several entries; their conditions need not be identical. Equal entries are not always repeated. Where two headings read alike, the source gives them in different places.

Key:
DUBs in HEK293 lysate = experiment: Activity-based protein profiling in the lysate with Ub-VS competition; format: binding, human; details: 1 µM, 1 h
Method: Cells (4 × 10^6) were seeded in 10 cm dishes and grown to 90% confluency. The medium was aspirated, cells were washed with ice-cold PBS, treated with 600 µL ABP lysis buffer (1% (v/v) IGEPAL, 50 mM Tris, 150 mM NaCl, 5% glycerol, pH 8, cOmplete protease inhibitor cocktail), and incubated on ice for 15 min. The lysed cells were scrapped off the dish, cleared by centrifugation, and the protein concentration was determined via a Bradford assay. […] Each compound was diluted to a 2x concentration in PBS buffer from a 10 mM stock in DMSO (final concentration: 1 µM). Then each compound dilution or a DMSO dilution was mixed with cell lysate and incubated for one hour at room temperature. […] Samples were resolved by SDS-PAGE using a 4–12% Bis-Tris gel (Invitrogen, NuPAGE) with MES SDS running buffer for 50 min at 180 V. Fluorescence was read out using the Alexa564 (λex/em 520–545/577–613 nm, for TAMRA) and Alexa680 (λex/em 650–675/700–730 nm, for the PageRuler Prestained NIR Protein Ladder (Thermo Scientific)) channels on a ChemiDoc MP Imaging System (Bio-Rad).

UCHL1 [1] = biological target: T1, UCHL1 (Homo sapiens, UniProt P09936); experiment: Ub-Rhodamine (Ubiquitin rhodamine cleavage) assay; format: biochemical; details: 1 h preincubation; for IC50: read-out: IC50 (UCHL1); for remaining activity at 0.00050402 µM: compound 0.50402 nM; for remaining activity at 0.00050402 µM / remaining activity at 0.00151206 µM / remaining activity at 0.00453618 µM / remaining activity at 0.0136085 µM / remaining activity at 0.0408257 µM / remaining activity at 0.122477 µM / remaining activity at 0.367431 µM / remaining activity at 1.10229 µM / remaining activity at 3.30688 µM / remaining activity at 30.581 µM / remaining activity at 100 µM: read-out: UCHL1 activity, data point mean; for remaining activity at 0.00151206 µM: compound 1.51206 nM; for remaining activity at 0.00453618 µM: compound 4.53618 nM; for remaining activity at 0.0136085 µM: compound 13.6085 nM; for remaining activity at 0.0408257 µM: compound 40.8257 nM; for remaining activity at 0.122477 µM: compound 122.477 nM; for remaining activity at 0.367431 µM: compound 367.431 nM; for remaining activity at 1.10229 µM: compound 1102.29 nM; for remaining activity at 3.30688 µM: compound 3306.88 nM; for remaining activity at 30.581 µM: compound 30581 nM; for remaining activity at 100 µM: compound 100000 nM
T1 sequence (P09936 1-223): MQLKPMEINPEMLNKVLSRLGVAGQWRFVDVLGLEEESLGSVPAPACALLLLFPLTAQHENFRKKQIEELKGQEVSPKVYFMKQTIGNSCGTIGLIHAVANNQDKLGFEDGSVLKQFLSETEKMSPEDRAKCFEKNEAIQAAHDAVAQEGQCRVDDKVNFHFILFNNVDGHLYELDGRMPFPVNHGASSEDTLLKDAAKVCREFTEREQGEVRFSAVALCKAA

UCHL1 [2] = biological target: T1, UCHL1; experiment: Thermal shift assay; format: binding; details: UCHL1 1 µM, 1 h, replicates
Method: Reactions were performed in white 96-well PCR plates (Bio-Rad). UCHL1 was diluted in thermal shift buffer (1x PBS, 5 mM DTT) to a 4x concentration of 4 µM. The protein was then mixed with 4x compound dissolved in thermal shift buffer in a 1:1 ratio. To each well was added 20 µL of DUB-Inhibitor solution, followed by 1 h incubation time. To each well was then added 20 µL 4x SYPRO Orange in thermal shift buffer. After sealing the plates with a transparent film, thermal denaturation (gradient: 20–90 °C; Increment: 0.3 °C, hold for 5 s before read) was performed and monitored by a Bio-Rad Connect cycler.

UCHL1 in HEK293 cells = system: T2, UCHL1 in HEK293 cells; experiment: Cellular Ub-probe (HA-Ub-VS) competition, inhibition of cellular UCHL1; format: cell-based, human
T2 construct: Western blot analysis of endogenous UCHL1 labeled with HA-Ub-VS after treatment of HEK293 cells; endogenous in cells; host or cells: HEK293
Method: Proteins were transferred to a polyvinylidene fluoride (PVDF, only experiments in Fig. 4e and Supplementary Fig. 7e, f) or nitrocellulose (all other experiments) membrane using a Trans-Blot Turbo system (Bio-Rad, 1.3 A, 25 V, 10 min). The membranes were blocked with 5% (m/v) nonfat milk in PBS-T buffer and incubated with indicated primary antibodies (anti-UCHL1, 1:1000, Cell Signaling, D3T2E; anti-PARK7, 1:1000, Cell Signaling, D29E5; anti-Tubulin, 1:4000, Sigma, T6199; anti-Hemagglutinin, 1:1000, BioLegend, 16B12; anti-flag, 1:2000, Sigma, F3165; anti-Ubiquitin, 1:1000, Cell Signaling, P4D1; anti-Ubiquitin, 1:300, Santa Cruz, P4D1, sc-8017; anti-UCHL3, 1:1000, Proteintech, 12384-1-AP) overnight. Then the membranes were incubated with the respective secondary antibody (anti-mouse,1:5000, Sigma, NXA931; anti-rabbit, 1:5000, Sigma, GENA934) coupled to horseradish peroxidase. The chemiluminescent reaction was initiated using a Clarity Western ECL substrate (Bio-Rad) and images were taken on a ChemiDoc MP Imaging System (Bio-Rad).
The total protein concentration was adjusted to 2 mg/ml by diluting each sample with ABP lysis buffer. A final concentration of 1 µM HA-Ub-VS probe was added, followed by incubation for 30 min at 37 °C. The labeling reaction was quenched by the addition of 4x LDS sample buffer. The samples were separated via SDS-PAGE and further analyzed via western blotting as described above.

`C#CCCC(=O)NCc1ccc(-c2cccc(Oc3ccnc(C#N)n3)c2)cc1` [CG017] was tested, and the “DUB engagement (Ub-VS competitive labeling)” value (DUBs in HEK293 lysate) was “did not show any covalent-irreversibly bound proteins at all”.
`C#CCCCNC(=O)c1ccc(-n2cnc(NC(=O)[C@H]3CCNC3)c2)cc1` [GK12S] was tested, and the IC50 (UCHL1 [1]) was greater than 100 µM, the remaining activity at 0.00050402 µM (UCHL1 [1]) was 91.5% and the remaining activity at 0.00151206 µM (UCHL1 [1]) was 91.7%. The remaining activity at 0.00453618 µM (UCHL1 [1]) was 90.7%, the remaining activity at 0.0136085 µM (UCHL1 [1]) was 97.1% and the remaining activity at 0.0408257 µM (UCHL1 [1]) was 88.7%. The remaining activity at 0.122477 µM (UCHL1 [1]) was 91.4%, the remaining activity at 0.367431 µM (UCHL1 [1]) was 92.8% and the remaining activity at 1.10229 µM (UCHL1 [1]) was 91.5%. It also gave a remaining activity at 3.30688 µM (UCHL1 [1]) of 88.8%, a remaining activity at 30.581 µM (UCHL1 [1]) of 90.9% and a remaining activity at 100 µM (UCHL1 [1]) of 101%. For the same compound, the “melting temperature (Tm) of UCHL1” value (UCHL1 [2]; compound 1.25 µM) was 53.4 and 53.1, the “melting temperature (Tm) of UCHL1” value (UCHL1 [2]; compound 2.5 µM) was 53.4 and the “melting temperature (Tm) of UCHL1” value (UCHL1 [2]; compound 5 µM) was 53.4 and 53.1.
In the case of `C#CCCC(=O)Nc1cccc(/C=C/c2ccc3c(C#N)c(N)[nH]c3c2)c1` [CG041], the “DUB engagement (Ub-VS competitive labeling)” value (DUBs in HEK293 lysate) is reported as “did not show any covalent-irreversibly bound proteins at all”.
Work on `C#CCCCNC(=O)c1ccc(-n2cnc(NC(=O)[C@@H]3CCNC3)c2)cc1` [GK12R] yielded an IC50 (UCHL1 [1]) greater than 100 µM, a remaining activity at 0.00050402 µM (UCHL1 [1]) of 95.8% and a remaining activity at 0.00151206 µM (UCHL1 [1]) of 97.9%. It also gave a remaining activity at 0.00453618 µM (UCHL1 [1]) of 98%, a remaining activity at 0.0136085 µM (UCHL1 [1]) of 94.4% and a remaining activity at 0.0408257 µM (UCHL1 [1]) of 95.3%. For the same compound, the remaining activity at 0.122477 µM (UCHL1 [1]) was 95.6%, the remaining activity at 0.367431 µM (UCHL1 [1]) was 94.6% and the remaining activity at 1.10229 µM (UCHL1 [1]) was 95.5%. For the same compound, the remaining activity at 3.30688 µM (UCHL1 [1]) was 94.2%, the remaining activity at 30.581 µM (UCHL1 [1]) was 93.5% and the remaining activity at 100 µM (UCHL1 [1]) was 99.1%. For the same compound, the “melting temperature (Tm) of UCHL1” value (UCHL1 [2]; compound 1.25 µM) was 53.4 and 52.8 and 53.1, the “melting temperature (Tm) of UCHL1” value (UCHL1 [2]; compound 2.5 µM) was 53.4 and the “melting temperature (Tm) of UCHL1” value (UCHL1 [2]; compound 5 µM) was 53.1.
For `N#CN1CCC[C@H]1C(=O)N1CCc2c(-c3ccnc4[nH]ccc34)cccc21` [Cpd117, reference compound], the IC50 (UCHL1 [1]; mean ± SD of independent experiments) was 0.009 ± 0.003 µM, the “inhibition of cellular UCHL1” value (UCHL1 in HEK293 cells; after 1 h (Supplementary Fig. 5f)) was “very low degree of inhibition” and the “inhibition of cellular UCHL1” value (UCHL1 in HEK293 cells; after 24 h incubation (Supplementary Fig. 5f)) was “no inhibition of cellular UCHL1 at all”.
